Inhibition data for 24 compounds are collected here from patent US12428415B2, “Matriptase 2 inhibitors and uses thereof” (Disc Medicine, Inc., priority 2018, dated 2025).

The test has as its target T1, Human Recombinant Matriptase 2 (Homo sapiens, UniProt Q8IU80).
T1 construct: purchased Enzo Life Sciences (an in-house preparation was also used) ALX-201-752-1
T1 sequence (Q8IU80 1-811): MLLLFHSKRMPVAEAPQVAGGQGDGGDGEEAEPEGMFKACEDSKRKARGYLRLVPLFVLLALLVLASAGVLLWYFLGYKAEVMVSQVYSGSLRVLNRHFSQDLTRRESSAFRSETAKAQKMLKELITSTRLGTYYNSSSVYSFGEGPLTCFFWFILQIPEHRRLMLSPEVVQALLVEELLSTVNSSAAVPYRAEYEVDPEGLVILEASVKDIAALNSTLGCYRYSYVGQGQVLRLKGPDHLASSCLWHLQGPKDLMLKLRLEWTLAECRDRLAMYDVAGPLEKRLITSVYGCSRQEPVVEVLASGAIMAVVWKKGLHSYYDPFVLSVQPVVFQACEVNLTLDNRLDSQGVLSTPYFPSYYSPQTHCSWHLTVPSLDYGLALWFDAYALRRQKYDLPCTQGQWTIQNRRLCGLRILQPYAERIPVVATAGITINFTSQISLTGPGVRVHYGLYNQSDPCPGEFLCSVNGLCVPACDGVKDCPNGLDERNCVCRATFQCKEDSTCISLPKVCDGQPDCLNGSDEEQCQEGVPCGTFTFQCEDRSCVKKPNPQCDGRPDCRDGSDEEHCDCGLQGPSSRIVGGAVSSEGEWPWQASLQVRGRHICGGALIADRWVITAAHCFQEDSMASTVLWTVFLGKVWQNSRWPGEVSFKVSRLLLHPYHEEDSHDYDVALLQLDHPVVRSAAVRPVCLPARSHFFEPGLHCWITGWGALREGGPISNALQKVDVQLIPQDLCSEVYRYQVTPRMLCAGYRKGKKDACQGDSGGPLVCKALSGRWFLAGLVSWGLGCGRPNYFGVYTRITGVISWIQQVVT
Description: Matriptase 2 fluorescence based inhibition assay, Method A (100 mM TRIS pH 9, 1 mg/mL BSA). The class given is biochemical. As to conditions: 1 uM; Assay Used A; read-out: Mar-2 % inhibition at 1 uM. The method in brief: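 Enzyme (7 nM commercial or 15 nM in-house) preincubated 30 min with compound in 100 mM TRIS pH 9, 1 mg/mL BSA, 1% DMSO at 25° C. Boc-Gln-Ala-Arg-AMC substrate at 100 μM; fluorescence (Ex 360/Em 480 nm) read 60 min later. Screened at 1 and 10 μM; IC50 from variable-slope sigmoidal fit.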

One may read the inhibition as the relative decrease from the control value, in per cent. Take `CCCOC(=O)NC(=N)c1ccc2cc(C(=O)Nc3cccc(N4CCCC4)c3)n(Cc3ccc(C(N)=O)cc3)c2c1` [Compound I-162]: the inhibition at 1 µM is 0 to 25%.
Turning to `N=C(N)c1ccc2cc(C(=O)Nc3cccc(-c4cnco4)c3)n(Cc3ccc(C(N)=O)cc3)c2c1` [Compound I-163], the inhibition at 1 µM fell in the range of 0 to 25%.
The value for `N=C(NC(=O)OC1CCCCC1)c1ccc2cc(C(=O)Nc3cccc(N4CCCC4)c3)n(Cc3ccc(C(N)=O)cc3)c2c1` [Compound I-164] was 0 to 25%.
In the case of `N=C(N)c1ccc2cc(C(=O)Nc3cccc(-n4cc(C(F)(F)F)cn4)c3)n(Cc3ccc(C(N)=O)cc3)c2c1` [Compound I-165], the inhibition at 1 µM was in the range of 0 to 25%.
Consider `N=C(N)c1ccc2cc(C(=O)Nc3cccc(-n4ccc(C(F)(F)F)n4)c3)n(Cc3ccc(C(N)=O)cc3)c2c1` [Compound I-166], for which the inhibition at 1 µM fell in the range of 0 to 25%.
In the case of `N=C(N)c1ccc2cc(C(=O)NCc3ccncc3)n(Cc3ccc(C(N)=O)cc3)c2c1` [Compound I-168], the inhibition at 1 µM is 25 to 50%.
Under `N=C(N)c1ccc2cc(C(=O)Nc3cc(F)ccn3)n(Cc3ccc(C(N)=O)cc3)c2c1` [Compound I-169] stands 0 to 25%; under `N=C(N)c1ccc2cc(C(=O)Nc3cccnc3)n(Cc3ccc(C(N)=O)cc3)c2c1` [Compound I-170], 0 to 25%.
The value for `Cc1ccc(NC(=O)c2cc3ccc(C(=N)N)cc3n2Cc2ccc(C(N)=O)cc2)nc1` [Compound I-171] was 0 to 25%; that for `N=C(N)c1ccc2cc(C(=O)Nc3cncc(F)c3)n(Cc3ccc(C(N)=O)cc3)c2c1` [Compound I-172] was 0 to 25%; that for `N=C(N)c1ccc2cc(C(=O)Nc3ccc(F)nc3)n(Cc3ccc(C(N)=O)cc3)c2c1` [Compound I-173] was 0 to 25%.
For the compound `N=C(N)c1ccc2cc(C(=O)Nc3ccc(Cl)nc3)n(Cc3ccc(C(N)=O)cc3)c2c1` [Compound I-174], the inhibition at 1 µM was in the range of 0 to 25%.
On to `Cc1cncc(NC(=O)c2cc3ccc(C(=N)N)cc3n2Cc2ccc(C(N)=O)cc2)c1` [Compound I-175], for which the inhibition at 1 µM fell in the range of 25 to 50%.
Under `Cc1ccnc(NC(=O)c2cc3ccc(C(=N)N)cc3n2Cc2ccc(C(N)=O)cc2)c1` [Compound I-176] stands 0 to 25%.
The value for `N=C(N)c1ccc2cc(C(=O)Nc3ccc(N4CCCC4)nc3)n(Cc3ccc(C(N)=O)cc3)c2c1` [Compound I-177] was 0 to 25%; that for `N=C(N)c1ccc2cc(C(=O)Nc3ccnc(N4CCCC4)c3)n(Cc3ccc(C(N)=O)cc3)c2c1` [Compound I-178] was 0 to 25%.
The value for `N=C(N)c1ccc2cc(C(=O)Nc3cc(N4CCCC4)ccn3)n(Cc3ccc(C(N)=O)cc3)c2c1` [Compound I-179] was 0 to 25%; that for `N=C(N)c1ccc2cc(C(=O)Nc3cccc(N4CCCC4)n3)n(Cc3ccc(C(N)=O)cc3)c2c1` [Compound I-180] was 25 to 50%.
For `N=C(N)c1ccc2cc(C(=O)Nc3cccc(-n4cccn4)n3)n(Cc3ccc(C(N)=O)cc3)c2c1` [Compound I-181], the inhibition at 1 µM lay in the range of 0 to 25%.
The value for `CCOC(=O)NC(=N)c1ccc2cc(C(=O)Nc3cccc(N4CCCC4)n3)n(Cc3ccc(C(N)=O)cc3)c2c1` [Compound I-183, Ethyl ((1-(4-carbamoylbenzyl)-2-((6-(pyrrolidin-1-yl)pyridin-2-yl)carbamoyl)-1H-indol-6-yl)(imino)methyl)carbamate] was 0 to 25%; that for `N=C(N)c1ccc2cc(C(=O)N[C@H]3CC[C@H](N)CC3)n(Cc3ccc(C(N)=O)cc3)c2c1` [Compound I-184] was 25 to 50%.
Under `CC1CCC(NC(=O)c2cc3ccc(C(=N)N)cc3n2Cc2ccc(C(N)=O)cc2)CC1` (stereo not drawn) [Compound I-185] stands 0 to 25%; under `C[C@H]1CC[C@H](NC(=O)c2cc3ccc(C(=N)N)cc3n2Cc2ccc(C(N)=O)cc2)CC1` [Compound I-186], 0 to 25%; under `N=C(N)c1ccc2cc(C(=O)NC3CCC(N4CCCC4)CC3)n(Cc3ccc(C(N)=O)cc3)c2c1` (stereo not drawn) [Compound I-188], 25 to 50%.
